From publication PMC9344462 (Journal of Medicinal Chemistry, 2022)
Where two headings read alike, the source gives them in different places.

How the values were obtained:
[1] = system: THP-1-derived macrophages
Mtb H37Rv [2] = assay type: cell-based, Mycobacterium tuberculosis H37Rv
[3] = biological target: PknG (kinase and rubredoxin domains) (Mycobacterium tuberculosis, UniProt P9WI73); experiment: Intrinsic tryptophan fluorescence quenching; assay type: binding
Mtb H37Rv [4] = details: previous results ref 8; cited from earlier work

PknG (kinase and rubredoxin domains), sequence (P9WI73 74-405): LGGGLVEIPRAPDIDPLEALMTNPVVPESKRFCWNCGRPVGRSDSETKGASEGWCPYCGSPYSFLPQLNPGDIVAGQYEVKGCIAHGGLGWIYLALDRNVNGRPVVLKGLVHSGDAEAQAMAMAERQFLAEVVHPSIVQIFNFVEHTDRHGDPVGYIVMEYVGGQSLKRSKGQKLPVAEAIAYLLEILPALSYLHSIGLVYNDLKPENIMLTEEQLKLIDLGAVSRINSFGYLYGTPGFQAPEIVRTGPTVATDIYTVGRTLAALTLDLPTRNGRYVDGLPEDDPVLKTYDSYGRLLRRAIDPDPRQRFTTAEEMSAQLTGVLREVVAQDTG

For `CC(C)c1ccc(C(=O)c2c(N)c(C(N)=O)c3ccccn23)cc1` [T1], the “effect on cell viability” value ([1]; 10 μM, 3, 24 and 48 h) was “none of the compounds showed adverse effects” and the “Mtb H37Rv intracellular survival” value (Mtb H37Rv [2]; 1 and 10 μM, 24 h and 48 h, […]) was “significant decrease”.
`NC(=O)c1c(N)c(C(=O)c2ccc(Cl)c(Cl)c2)n2ccccc12` [B4] gave a Kd [3] of 13 µM.
For `NC(=O)c1c(N)c(C(=O)c2cccs2)n2ccccc12` [B3], the Kd [3] was 3.6 µM.
With `NC(=O)c1c(N)c(C(=O)c2ccc(F)cc2)n2ccccc12` [B1] the “effect on cell viability” value [1] was “none of the compounds showed adverse effects” and the “Mtb H37Rv intracellular survival” value (Mtb H37Rv [2]) was “significant decrease”.
In the case of `NC(=O)c1c(NC(=O)C2CC2)sc2c1CCCC2` [AX20017], the “inhibitory activity on intracellular survival of Mtb within macrophage cells” value (Mtb H37Rv [4]) is given as “very similar inhibitory activity”.
